Source: patent US20220046923A1, “HERBICIDAL CINNOLINIUM COMPOUNDS” (SYNGENTA CROP PROTECTION AG, priority 2018, published 2022)

How the values were obtained:
Assay in all cases: Post-emergence efficacy, glasshouse spray test
Format in all cases: in vivo
Lolium perenne (LOLPE) = conditions: application rate 1000 g/Ha, evaluated after 13 days; for pest or weed control at 1000 g/ha: Lolium perenne, post-emergence, 312 h, read-out: Control of weed species LOLPE after post-emergence application (100=total damage to plant; 0=no damage to plant)
Procedure: (§1) Seeds of a variety of test species were sown in standard soil in pots. After cultivation for 14 days (post-emergence) under controlled conditions in a glasshouse (at 24/16° C., day/night; 14 hours light; 65% humidity), the plants were sprayed with an aqueous spray solution derived from the dissolution of the technical active ingredient formula (I) in a small amount of acetone and a special solvent and emulsifier mixture referred to as IF50 (11.12% Emulsogen EL360 TM+44.44% N-methylpyrrolidone+44.44% Dowanol DPM glycol ether), to create a 50 g/l solution which was then diluted to required concentration using 0.25% or 1% Empicol ESC70 (Sodium lauryl ether sulphate)+1% ammonium sulphate as diluent. The test plants were then grown in a glasshouse under controlled conditions (at 24/16° C., day/night; 14 hours light; 65% humidity) and watered twice daily. After 13 days the test was evaluated (100=total damage to plant; 0=no damage to plant).
(§2) Ipomoea hederacea (IPOHE), Euphorbia heterophylla (EPHHL), Chenopodium album (CHEAL), Amaranthus palmeri (AMAPA), Lolium perenne (LOLPE), Digitaria sanguinalis (DIGSA), Eleusine indica (ELEIN), Echinochloa crus-galli (ECHCG), Setaria faberi (SETFA)

Eleusine indica (ELEIN) = conditions: application rate 1000 g/Ha, evaluated after 13 days; for pest or weed control at 1000 g/ha: Eleusine indica, post-emergence, 312 h, read-out: Control of weed species ELEIN after post-emergence application (100=total damage to plant; 0=no damage to plant)
Procedure: as §1, §2

Setaria faberi (SETFA) = conditions: application rate 1000 g/Ha, evaluated after 13 days; for pest or weed control at 1000 g/ha: Setaria faberi, post-emergence, 312 h, read-out: Control of weed species SETFA after post-emergence application (100=total damage to plant; 0=no damage to plant)
Procedure: as §1, §2

[1] = test system: Amaranthus palmeri (AMAPA); conditions: application rate 1000 g/Ha, evaluated after 13 days; for pest or weed control at 1000 g/ha: Amaranthus palmeri, post-emergence, 312 h, read-out: Control of weed species AMAPA after post-emergence application (100=total damage to plant; 0=no damage to plant)
Procedure: as §1, §2

[2] = test system: Digitaria sanguinalis (DIGSA); conditions: application rate 1000 g/Ha, evaluated after 13 days; for pest or weed control at 1000 g/ha: Digitaria sanguinalis, post-emergence, 312 h, read-out: Control of weed species DIGSA after post-emergence application (100=total damage to plant; 0=no damage to plant)
Procedure: as §1, §2

[3] = test system: Ipomoea hederacea (IPOHE); conditions: application rate 1000 g/Ha, evaluated after 13 days; for pest or weed control at 1000 g/ha: Ipomoea hederacea, post-emergence, 312 h, read-out: Control of weed species IPOHE after post-emergence application (100=total damage to plant; 0=no damage to plant)
Procedure: as §1, §2

[4] = test system: Echinochloa crus-galli (ECHCG); conditions: application rate 1000 g/Ha, evaluated after 13 days; for pest or weed control at 1000 g/ha: Echinochloa crus-galli, post-emergence, 312 h, read-out: Control of weed species ECHCG after post-emergence application (100=total damage to plant; 0=no damage to plant)
Procedure: as §1, §2

[5] = test system: Chenopodium album (CHEAL); conditions: application rate 1000 g/Ha, evaluated after 13 days; for pest or weed control at 1000 g/ha: Chenopodium album, post-emergence, 312 h, read-out: Control of weed species CHEAL after post-emergence application (100=total damage to plant; 0=no damage to plant)
Procedure: as §1, §2

[6] = test system: Euphorbia heterophylla (EPHHL); conditions: application rate 1000 g/Ha, evaluated after 13 days; for pest or weed control at 1000 g/ha: Euphorbia heterophylla, post-emergence, 312 h, read-out: Control of weed species EPHHL after post-emergence application (100=total damage to plant; 0=no damage to plant)
Procedure: as §1, §2

| Structure (SMILES) | Control of weed species LOLPE after post-emergence application (100=total damage to plant; 0=no damage to plant) (Lolium perenne (LOLPE)) | Control of weed species ELEIN after post-emergence application (100=total damage to plant; 0=no damage to plant) (Eleusine indica (ELEIN)) | Control of weed species SETFA after post-emergence application (100=total damage to plant; 0=no damage to plant) (Setaria faberi (SETFA)) | Control of weed species AMAPA after post-emergence application (100=total damage to plant; 0=no damage to plant) [1] | Control of weed species DIGSA after post-emergence application (100=total damage to plant; 0=no damage to plant) [2] | Control of weed species IPOHE after post-emergence application (100=total damage to plant; 0=no damage to plant) [3] | Control of weed species ECHCG after post-emergence application (100=total damage to plant; 0=no damage to plant) [4] | Control of weed species CHEAL after post-emergence application (100=total damage to plant; 0=no damage to plant) [5] | Control of weed species EPHHL after post-emergence application (100=total damage to plant; 0=no damage to plant) [6] | pest or weed control at 1000 g/ha (Lolium perenne (LOLPE)) | pest or weed control at 1000 g/ha (Eleusine indica (ELEIN)) | pest or weed control at 1000 g/ha (Setaria faberi (SETFA)) | pest or weed control at 1000 g/ha [1] | pest or weed control at 1000 g/ha [2] | pest or weed control at 1000 g/ha [3] | pest or weed control at 1000 g/ha [4] | pest or weed control at 1000 g/ha [5] | pest or weed control at 1000 g/ha [6] |
| --- | --- | --- | --- | --- | --- | --- | --- | --- | --- | --- | --- | --- | --- | --- | --- | --- | --- | --- |
| O=C(O)CCC[n+]1ccc2ccccc2n1 [Compound A17] | 40 | 60 | 40 | 70 | 40 | 30 | 30 | 60 | 40 | – | – | – | – | – | – | – | – | – |
| O=S(=O)(O)CC[n+]1ccc2cc(-c3ccccc3)ccc2n1 [Compound A112] | – | – | – | – | – | – | – | – | – | 10% | 30% | 20% | 10% | 30% | 10% | 10% | 30% | 20% |
| O=S(=O)([O-])CC[n+]1ccc2cccc(-c3ccccc3)c2n1 [Compound A52, 2-(8-phenylcinnolin-2-ium-2-yl)ethanesulfonate] | – | – | – | – | – | – | – | – | – | 20% | 70% | 30% | 100% | 40% | 30% | 20% | 40% | 100% |
| O=S(=O)([O-])CC[n+]1cc(-c2ccccc2)c2ccccc2n1 [Compound A51] | – | – | – | – | – | – | – | – | – | 10% | 30% | 30% | 90% | 40% | 30% | 20% | 30% | 60% |
| O=S(=O)([O-])C[n+]1ccc2ccccc2n1 [Compound A48, cinnolin-2-ium-2-ylmethanesulfonate] | – | – | – | – | – | – | – | – | – | 70% | 90% | 70% | 100% | 60% | 100% | 40% | 80% | 100% |
| O=C(O)c1ccc(C[n+]2ccc3ccccc3n2)cc1 [Compound A89] | – | – | – | – | – | – | – | – | – | 0% | 0% | 0% | 20% | 0% | 20% | 0% | 0% | 40% |
